From patent US8906829B2, “Synergistic algicidal compositions including hydrazone derivatives and copper” (Dow AgroSciences LLC, priority 2010, dated 2014)

Tests used:
[1] = tested on: C. reinhardtii CC-1928; experiment: Effect of copper on activity of hydrazones: in vitro growth inhibition of C. reinhardtii in TAP Cu minus / TAP Cu plus medium (Example 10); format: cell-based, Chlamydomonas reinhardtii; conditions: test compound 1 μg/mL, 48 h; for inhibition of growth at 1 µg/mL: Chlamydomonas reinhardtii, TAP Cu minus medium, read-out: % Inhn. Minus Copper Observed; for % Inhn. Plus Copper Observed: TAP Cu plus medium (CuCl2)
Protocol: In vitro toxicity assays against C. reinhardtii CC-1928 (wild type mt+137c green in dark subclone) obtained from the Chlamydomonas Resource Center at Duke University were conducted using TAP liquid growth medium described by Gorman and Levine Proc. Natl. Acad. Sci. USA 1965, 54, 1665-1669 except that CuSO4.5H2O, normally included as a component of Hutner's trace element stock solution (Hutner et al. Proc. Am. Philos. Soc. 1950, 94, 152-170), was omitted. The TAP medium lacking Cu (TAP Cu minus) was prepared by adding 400 mg NH4Cl, 10 mL of 100× Tris-Acetate (242 g Tris-base and 100 mL glacial acetic acid in 1000 mL milli Q water), and 8.3 mL of 120.5× phosphate buffer (14.34 g K2HPO4 and 7.26 g KH2PO4 in 1000 mL milli Q water) to milli Q water to make a total volume of 1 liter. The medium was treated with 0.5 g Chelex 100 resin (Bio-Rad Analytical grade, 50-100 mesh, sodium form, cat#142-2822) by stirring at room temperature for 1 hour. 900 mL were decanted and 45.9 mg of CaCl2.2H2O, 90 mg of MgSO4.7H2O and 0.9 mL Hutner's trace elements lacking CuSO4.5H2O were added and the solution was filter-sterilized. Medium containing copper (TAP Cu plus) was prepared by adding CuCl2.2H2O to the TAP Cu minus medium at 20 μM. Test compounds were dissolved in dimethylsulfoxide (DMSO) at 2 mg/mL then dilutions in TAP Cu minus and TAP Cu plus media were prepared in sterilized microcentrifuge tubes at 2 μg/mL. 100 μL aliquots of diluted compound were dispensed into flat-bottomed 96-well microtiter plates. C. reinhardtii was maintained under 12 h of light on TAP agar plates at 18° C. A loopful of cells was added to 50 mL of TAP Cu minus medium and the culture incubated with shaking at 200 rpm at 27° C. for 24 h. The culture (10 to 20 mL aliquot) was centrifuged in a bench centrifuge at 2000 rpm for 2 min. The resulting cell pellet was resuspended in 5 mL sterile milli Q water (which had been treated with Chelex 100 resin using 0.5 g resin per liter of water by stirring at room temperature for 1 h), and recentrifuged. The cells were resuspended in TAP Cu minus medium, and the suspension adjusted to 2×10^5 spores per mL. Microtiter plates containing compounds as described above were inoculated with 100 μL of this cell suspension and the plates incubated at 27° C. for 48 h before assessing algal growth by measuring light scattering in a NepheloStar plate-reader. Growth inhibition was determined by comparing growth in the presence of test compound with growth in control wells lacking test compound. Results for growth inhibition by test compounds at 1 μg/mL in TAP Cu plus medium (% Inhn Plus Copper Observed) were compared with predicted values (% Inhn Plus Copper Predicted) that were calculated using the formula set forth by S. R. Colby in Weeds 1967, 15, 20-22 based on results obtained for the same compounds in TAP Cu minus medium (% Inhn Minus Copper Observed). […] Results illustrate that hydrazones and copper produce a synergistic algicidal effect towards C. reinhardtii.

[2] = tested on: Synechocystis sp. strain 6803; experiment: Effect of copper on activity of hydrazones: in vitro growth inhibition of Synechocystis in BG-11 Cu minus / Cu plus medium (Example 11); format: cell-based; conditions: 72 h; for % Inhn. Plus Copper Observed: BG-11 Cu plus medium
Protocol: In vitro toxicity assays against the cyanobacterium (blue-green alga) Synechocystis sp. strain 6803 were conducted using BG-11 medium except that copper micronutrient, normally included as CuSO4.5H2O, was omitted. The medium, termed BG-11 Cu minus, was prepared by dissolving 1.5 g NaNO3, 40 mg K2HPO4, 6 mg citric acid, 1 mg Na2EDTA and 20 mg Na2CO3 in 1 liter of milli Q water and treating the solution with 0.5 g Chelex 100 resin (Bio-Rad Analytical grade, 50-100 mesh, sodium form, cat#142-2822) by stifling at room temperature for 1 h. 900 mL were decanted and 67.5 mg MgSO4.7H2O, 32.4 mg […], 5.4 mg ferric ammonium citrate and 0.9 mL trace metal mix A5 without copper (2.86 g H3BO3, 1.81 g MnCl2.4H2O, 222 mg ZnSO4.7H2O, 390 mg Na2MoO4.2H2O and Co(NO3)2.6H2O in 1 L Milli Q water) was added. The pH was adjusted to 7.1 and the medium was filter-sterilized. Medium containing copper (BG-11 Cu plus) was prepared by adding CuCl2.2H2O to the BG-11 Cu minus medium at 0.2 μM. Test compounds were dissolved in dimethylsulfoxide (DMSO) at 2 mg/mL then appropriate dilutions in BG-11 Cu minus and BG-11 Cu plus media were prepared in sterilized microcentrifuge tubes. 100 μL aliquots were dispensed into flat-bottomed 96-well microtiter plates. Synechocystis was maintained under 24 h of light on BG-11 agar plates at 27° C. A loopful of cells was added to 50 mL of BG-11 Cu minus growth medium and the culture was incubated with shaking at 200 rpm at 27° C. for 24 h. The culture (10 to 20 mL aliquot) was centrifuged in a bench centrifuge at 2400 rpm for 2 min. The resulting cell pellet was resuspended in 5 mL sterile milli Q water (which had been treated with Chelex 100 resin using 0.5 g resin per liter of water by stirring at room temperature for 1 h), and recentrifuged. The cells were resuspended in BG-11 Cu minus medium, and the suspension adjusted to 4×10^5 spores per mL. Microtiter plates containing compounds as described above were inoculated with 100 μL of this cell suspension and the plates incubated at 27° C. for 72 h before assessing algal growth by measuring light scattering in a NepheloStar plate reader. Growth inhibition was determined by comparing growth in the presence of test compound with growth in control wells lacking test compound. Results for growth inhibition by test compounds in BG-11 Cu plus medium (% Inhn Plus Copper Observed) were compared with predicted values (% Inhn Plus Copper Predicted) that were calculated using the formula set forth by S. R. Colby in Weeds 1967, 15, 20-22 based on-results obtained for the same compounds in BG-11 Cu minus medium (% Inhn Minus Copper Observed) and the inhibition attributed to copper chloride alone, as determined by comparing growth in copper-minus and copper-plus media without any test compound across experiments. Results illustrate that hydrazones and copper produce a synergistic algicidal effect towards Synechocystis.

[3] = Synechocystis, Test Concn. 0.05 μg/mL, BG-11 Cu minus medium, read-out: % Inhn. Minus Copper Observed
[4] = Synechocystis, Test Concn. 0.0125 μg/mL, BG-11 Cu minus medium, read-out: % Inhn. Minus Copper Observed
[5] = Synechocystis, Test Concn. 0.00625 μg/mL, BG-11 Cu minus medium, read-out: % Inhn. Minus Copper Observed

melting point [°C]	SMILES	inhibition of growth at 1 µg/mL [1] [%]	% Inhn. Plus Copper Observed [1] [%]	inhibition of growth at 0.025 µg/mL ([2]; Synechocystis, Test Concn. 0.025 μg/mL, BG-11 Cu minus medium, read-out: % Inhn. Minus Copper Observed) [%]	% Inhn. Plus Copper Observed ([2]; Test Concn. 0.025 μg/mL) [%]	inhibition of growth at 0.05 µg/mL [2, 3] [%]	% Inhn. Plus Copper Observed ([2]; Test Concn. 0.05 μg/mL) [%]	inhibition of growth at 0.0125 µg/mL [2, 4] [%]	% Inhn. Plus Copper Observed ([2]; Test Concn. 0.0125 μg/mL) [%]	inhibition of growth at 0.00625 µg/mL [2, 5] [%]	% Inhn. Plus Copper Observed ([2]; Test Concn. 0.00625 μg/mL) [%]
245	C/C(=N\NC(=O)c1c(C)cccc1O)c1cc(Cl)cc(Cl)c1O [Compound 58]	3	93	46	64						
232 to 234	O=C(N/N=C/c1c(Cl)ccc(Cl)c1O)c1cccc(Cl)c1 [Compound 44]	11	94			61	93				
	O=C(N/N=C/c1cc(Cl)cc(Cl)c1O)c1cccc(Cl)c1 [Compound 8]	15	92			62	92				
230 to 234	O=C(N/N=C/c1cccc(C(F)(F)F)c1O)c1ccccc1O [Compound 36]	7	96					28	87		
244 to 252	C/C(=N\NC(=O)c1ccc(Br)cc1)c1cccc([N+](=O)[O-])c1O [Compound 60]	-50	89					33	50		
174 to 178	O=C(N/N=C/c1cccc(Cl)c1O)c1cccc(Cl)c1 [Compound 51]	-13	96			17	97				
220 to 222	C/C(=N\NC(=O)c1ccccc1Br)c1cc(Cl)cc(Cl)c1O [Compound 5]	26	95			-10	91				
200 to 202	O=C(N/N=C/c1cc(C(F)(F)F)cc(Cl)c1O)c1ccc(F)cc1 [Compound 29]	16	96			11	96				
266 to 268	O=C(N/N=C/c1cccc(Cl)c1O)c1ccccc1O [Compound 54]	-8	75			37	88				
255 to 257	Cc1ccc(C(=O)N/N=C/c2cc(C(F)(F)F)cc(Cl)c2O)c(O)c1 [Compound 31]	-1	88			38	92				
257 to 259	O=C(N/N=C/c1c(O)cccc1Cl)c1cccc(F)c1 [Compound 69]										
	O=C(N/N=C/c1cc(Cl)cc(Cl)c1O)c1ccc(Br)cc1 [Compound 9]	7	90							15	74
	COc1cc(Br)cc(/C=N/NC(=O)c2cccc(Br)c2)c1O [Compound 19]	12	52			-18	43				
	Cc1ccccc1C(=O)N/N=C/c1cc(Cl)cc(Br)c1O [Compound 16]	-3	95			-5	94				
	COc1cc(Br)cc(/C=N/NC(=O)c2ccc(C)cc2)c1O [Compound 20]	-6	94			9	86				
> 300	O=C(N/N=C/c1c(O)cccc1Cl)c1ccc([N+](=O)[O-])cc1 [Compound 49]	33	93								
277 to 281	O=C(N/N=C/c1cc(C(F)(F)F)ccc1O)c1ccccc1O [Compound 71]										
	O=C(N/N=C/c1cc(Br)cc(Br)c1O)c1ccccc1 [Compound 11]	31	96			50	97				
	O=C(N/N=C/c1cc(Cl)cc(Br)c1O)c1cccc(Br)c1 [Compound 17]	32	83							59	72
	O=C(N/N=C/c1cc(Cl)cc(Cl)c1O)c1ccc(F)cc1 [Compound 4]	12	92			-14	96				
273 to 277	O=C(N/N=C/c1c(O)cccc1Cl)c1ccc(Cl)cc1 [Compound 70, 4-chlorobenzoic acid [1-(2-chloro-6-hydroxyphenyl)-methylidene]-hydrazide]										
	O=C(N/N=C/c1cc(Cl)ccc1O)c1ccccc1 [Compound 3]	25	62			-17	96				
